Reference: patent US6812245B2, “Polycylic xanthones and their use” (Instituto Biomar S.A., priority 2000, dated 2004)

How the values were obtained:
Format in all cases: cell-based
[1] = system: human lung carcinoma A-549; experiment: in vitro antitumour activity in cell cultures, human lung carcinoma A-549; conditions: A549; human lung carcinoma A-549 cell culture
Procedure: (§1) The antitumour activities of IB-00208 have been determined in vitro in cell cultures of mouse leukaemia P-388, human lung carcinoma A-549, human colon carcinoma HT-29 and human melanoma MEL-28. The procedure was carried out using the methodology described by Bergeron et al. The IC50 found was of 0.001, 0.001, 0.001, and 0.001 μg/ml for all 4 cell lines.

[2] = system: mouse leukaemia P-388; experiment: in vitro antitumour activity in cell cultures, mouse leukaemia P-388; conditions: P388; mouse leukaemia P-388 cell culture
Procedure: as §1

[3] = system: human melanoma MEL-28; experiment: in vitro antitumour activity in cell cultures, human melanoma MEL-28; conditions: SK-MEL-28; human melanoma MEL-28 cell culture
Procedure: as §1

[4] = system: human colon carcinoma HT-29; experiment: in vitro antitumour activity in cell cultures, human colon carcinoma HT-29; conditions: human colon carcinoma HT-29 cell culture
Procedure: as §1

Measured: IC50

COc1ccc(OC)c2c(=O)c3c(oc12)C(=O)c1ccc2c(OC4OC(C)C(OC)C(OC)C4OC)c4c(c(O)c2c1C3=O)C(=O)OC(C)C4 (stereo not shown) [IB-00208]
1 ng/mL: all assays above
